# Source: patent US10414771B2, “Compounds useful for inhibiting metastasis from cancer and methods using same” (Drexel University, priority 2010, dated 2019)
# Several values for one entry are separate records, joined by “and”; a condition that tells them apart may be missing. Identical values can stand only once. Like-named read-outs stand apart in the source and are kept apart here.
# T1: CX3CR1 (Homo sapiens, UniProt P49238)
# T1 sequence (P49238 1-355): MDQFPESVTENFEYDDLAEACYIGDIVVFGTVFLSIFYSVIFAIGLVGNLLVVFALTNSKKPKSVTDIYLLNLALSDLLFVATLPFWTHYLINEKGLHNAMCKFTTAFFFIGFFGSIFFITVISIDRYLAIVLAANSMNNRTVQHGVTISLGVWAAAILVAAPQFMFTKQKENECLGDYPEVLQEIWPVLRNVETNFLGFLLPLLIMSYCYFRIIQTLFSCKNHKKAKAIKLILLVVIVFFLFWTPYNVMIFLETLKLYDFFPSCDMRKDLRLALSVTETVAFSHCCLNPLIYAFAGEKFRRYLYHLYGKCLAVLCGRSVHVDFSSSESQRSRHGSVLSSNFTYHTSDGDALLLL
# B1: CX3CL1: Control agonist CX3CL1 from Peprotech; chemokine ligand of CX3CR1, also called fractalkine or FKN (protein, listed as Homo sapiens)
# chain: MAPISLSWLLRLATFCHLTVLLAGQHHGVTKCNITCSKMTSKIPVALLIHYQQNQASCGKRAIILETRQHRLFCADPKEQWVKDAMQHLDRQAAALTRNGGTFEKQIGEVKPRTTPAAGGMDESVVLEPEATGESSSLEPTPSSQEAQRALGTSPELPTGVTGSSGTRLPPTPKAQDGGPVGTELFRVPPVSTAATWQSSAPHQPGPSLWAEAKTSEAPSTQDPSTQASTASSPAPEENAPSEGQRVWGQGQSPRPENSLEREEMGPVPAHTDAFQDWGPGSMAHVSVVPVSSEGTPSREPVASGSWTPKAEEPIHATMDPQRLGVLITPVPDAQAATRRQAVGLLAFLGLLFCLGVAMFTYQSLQGCPRKMAGEMAEGLRYIPRSCGSNSYVLVPV
# Tests used:
# Assay type in all cases: cell-based
# CX3CR1 [1] = molecular target: T1, CX3CR1; assay: Inhibition of FKN-induced ERK phosphorylation in MDA-436 breast cancer cells over-expressing CX3CR1 (Western blot); parameters: expressed in transfected cells; host or cells: MDA-MB-436 human breast cancer cells; conditions: for inhibition of ERK phosphorylation induced by FKN: compound at 10 μM, incubated 30 minutes, MDA-436 cells over-expressing CX3CR1, 50 nM FKN for 5 minutes
# Method: Cells were serum starved for 4 hours and then exposed to 50 nM recombinant human FKN (R&D systems, Minneapolis, Minn.) for indicated time points.
# (§1) Cell lysates were obtained and SDS-polyacrylamide gel electrophoresis and western blot analysis were performed as previously described (Shulby et al., 2004, Cancer Res. 64:4393-98), with few modifications. Membranes were probed with an antibody against CX3CR1 (0.5 μg/ml, Torrey Pines Biolabs, East Orange, N.J.) and actin (Sigma, St. Louis, Mo.) using 5% milk as a blocking reagent. Membranes were also probed with antibodies targeting phospho-p44/42 MAPK (Thr202/Tyr204, Cell Signaling) and total p44/42 MAPK (Cell Signaling). All primary antibody incubations were performed overnight at 4° C. Primary antibody binding was detected using horseradish peroxidase-conjugated anti-rabbit secondary antibody (Pierce, Rockford, Ill.). Chemiluminescent signals were obtained using SuperSignal West Femto reagents (Pierce) and detected with the Fluorochem 8900 imaging system and relative software (Alpha Innotech, San Leandro, Calif.).
# Compound 1 was then evaluated for its ability to inhibit the activation of downstream intracellular pathways by CX3CR1 upon stimulation with soluble FKN. In these experiments, MDA-MB 436 human breast cancer cells, engineered to over-express CX3CR1, were treated with 50 nM FKN for 5 minutes after being incubated with compound 1 for 30 minutes.
# CX3CR1 [2] = molecular target: T1, CX3CR1; assay: Calcium mobilization (Ca2+) assay, agonist mode, HEK293T cells stably expressing human CX3CR1; parameters: Expression vector containing full-length human CX3CR1 cDNA; host or cells: HEK293T; conditions: for stimulation of calcium flux (agonist activity): HEK293T cells expressing human CX3CR1
# Method: (§2) Cells: Mammalian HEK293T cells stably expressing human CX3CR1 (Multispan, Hayward, Calif.)—Host cell: HEK293T; Transfection: Expression vector containing full-length human CX3CR1 cDNA (GenBank Accession Number NM_001337) with FLAG tag sequence at N-terminus; Propagation Medium: DMEM, 10% FBS, 1 μg/mL puromycin.
# (§3) Compounds were reconstituted in DMSO at 10 mM. Control agonist CX3CL1 was from Peprotech (Cat #300-31).
# (§4) Calcium assay: Cells expressing the CX3CR1 receptor were transiently transfected with the chimeric G protein Gαqi5 and seeded in 384-well plates at appropriate densities and cultured overnight. Calcium assays were conducted according to the manufacturer's protocols. The calcium dye loading buffer was added to the cells and incubated for one hour at 37° C. Calcium flux was monitored for 90 seconds with compound injected into the wells at 20th second. In antagonist mode, carrier or compounds were preincubated with the cells for 30 minutes before calcium flux measurement with the control agonist at EC80 concentration (0.04 μM).
# (§5) Data analysis: Calcium assay results were expressed as “RFU” and “% Increase in RFU” (FIG. 17). Data were represented in Mean±SEM. Dose-response curves were fitted using “Sigmoidal dose-response (variable slope)” function in Prism 4 without constraint. EC50, EC80 and IC50 values were derived from “% Increase in RFU”.
# CX3CR1 [3] = molecular target: T1, CX3CR1; assay: Calcium mobilization (Ca2+) assay, antagonist mode (CX3CL1 at EC80), HEK293T cells stably expressing human CX3CR1; parameters: Expression vector containing full-length human CX3CR1 cDNA; host or cells: HEK293T; conditions: for % Increase in RFU / RFU: antagonist mode
# Method: as §2, §3, §4, §5
# p-ERK1/2 = p-ERK1/2 inhibition by Western blot analysis
# Method: as §1
# [4] = agonist mode, Log [Compounds] M −4.5, listed as JMS-16
# [5] = agonist mode, Log [Compounds] M −4.8, listed as JMS-16
# [6] = agonist mode, Log [Compounds] M −5.1, listed as JMS-16
# [7] = agonist mode, Log [Compounds] M −5.4, listed as JMS-16
# [8] = agonist mode, Log [Compounds] M −5.7, listed as JMS-16
# [9] = agonist mode, Log [Compounds] M −6.0, listed as JMS-16
# [10] = agonist mode, Log [Compounds] M −6.3, listed as JMS-16
# [11] = agonist mode, Log [Compounds] M −6.6, listed as JMS-16
# [12] = CX3CL1 at EC80 (0.04 μM), Log [Compounds] M −4.5, listed as JMS-16
# [13] = CX3CL1 at EC80 (0.04 μM), Log [Compounds] M −4.8, listed as JMS-16
# [14] = CX3CL1 at EC80 (0.04 μM), Log [Compounds] M −5.1, listed as JMS-16
# [15] = CX3CL1 at EC80 (0.04 μM), Log [Compounds] M −5.4, listed as JMS-16
# [16] = CX3CL1 at EC80 (0.04 μM), Log [Compounds] M −5.7, listed as JMS-16
# [17] = CX3CL1 at EC80 (0.04 μM), Log [Compounds] M −6.0, listed as JMS-16
# [18] = CX3CL1 at EC80 (0.04 μM), Log [Compounds] M −6.3, listed as JMS-16
# [19] = CX3CL1 at EC80 (0.04 μM), Log [Compounds] M −6.6, listed as JMS-16
# [20] = control agonist, Log [CX3CL1] M −6.7
# [21] = control agonist, Log [CX3CL1] M −7.2
# [22] = control agonist, Log [CX3CL1] M −7.7
# [23] = control agonist, Log [CX3CL1] M −8.1
# [24] = control agonist, Log [CX3CL1] M −8.6
# [25] = control agonist, Log [CX3CL1] M −9.1
# [26] = control agonist, Log [CX3CL1] M −9.6
# [27] = control agonist, Log [CX3CL1] M −10.0
# [28] = EC80 CX3CL1 (0.04 μM) alone, no test compound
molecule,measurement,setting,value
"N#CC(CCCN1CCC(O)(c2ccc(Cl)cc2)CC1)(c1ccccc1)c1ccccc1 [Compound 1, 5-(4-(4-chlorophenyl)-4-hydroxypiperidin-1-yl)-2,2-diphenylpentanenitrile]",CX3CR1 antagonism (in words),CX3CR1 [1],weakly potent
same,inhibition of ERK phosphorylation induced by FKN,CX3CR1 [1],inhibits ERK phosphorylation
same,inhibition of ERK phosphorylation induced by FKN,CX3CR1 [1]; listed as compound 1,able to inhibit the activation of the MAPK pathway
same,CX3CR1 antagonism (in words),CX3CR1 [1]; listed as compound 1,weak CX3CR1 antagonism
"O=c1c2cccn2c2ccccc2n1CCCN1CCC(O)(c2ccc(Cl)cc2)CC1 [Compound 3, 5-(3-(4-(4-chlorophenyl)-4-hydroxypiperidin-1-yl)propyl)pyrrolo[1,2-a]quinoxalin-4(5H)-one]",stimulation of calcium flux (agonist activity),CX3CR1 [2],agonist activity at the two highest concentrations
same,% Increase in RFU,CX3CR1 [2]; [4],127.9% and 118.0% and 112.4%
same,RFU,CX3CR1 [2]; [4],31.7 RFU and 30.7 RFU and 29.0 RFU
same,% Increase in RFU,CX3CR1 [2]; [5],80.2% and 85.0% and 84.7%
same,RFU,CX3CR1 [2]; [5],22.1 RFU and 22.5 RFU and 23.3 RFU
same,% Increase in RFU,CX3CR1 [2]; [6],60.1% and 70.3% and 64.9%
same,RFU,CX3CR1 [2]; [6],16.5 RFU and 20.3 RFU and 18.8 RFU
same,% Increase in RFU,CX3CR1 [2]; [7],61.1% and 62.3% and 60.5%
same,RFU,CX3CR1 [2]; [7],15.5 RFU and 16.9 RFU and 17.1 RFU
same,% Increase in RFU,CX3CR1 [2]; [8],57.2% and 61.7% and 60.7%
same,RFU,CX3CR1 [2]; [8],15.2 RFU and 17.8 RFU and 17.1 RFU
same,% Increase in RFU,CX3CR1 [2]; [9],58.3% and 63.2% and 63.0%
same,RFU,CX3CR1 [2]; [9],15.6 RFU and 18.7 RFU and 18.6 RFU
same,% Increase in RFU,CX3CR1 [2]; [10],59.0% and 66.2% and 61.9%
same,RFU,CX3CR1 [2]; [10],16.0 RFU and 18.2 RFU and 19.5 RFU
same,% Increase in RFU,CX3CR1 [2]; [11],61.6% and 62.1% and 60.1%
same,RFU,CX3CR1 [2]; [11],15.5 RFU and 18.6 RFU and 17.8 RFU
same,IC50,"CX3CR1 [3]; 30 min preincubation, CX3CL1 at EC80 (0.04 μM), read-out: IC50, inhibition of CX3CL1-evoked calcium flux",21 µM
same,% Increase in RFU,CX3CR1 [3]; [12],4.4% and 3.5% and 2.2%
same,RFU,CX3CR1 [3]; [12],1.2 RFU and 0.9 RFU and 0.6 RFU
same,% Increase in RFU,CX3CR1 [3]; [13],27.9% and 23.6% and 26.7%
same,RFU,CX3CR1 [3]; [13],9.5 RFU and 7.6 RFU and 8.5 RFU
same,% Increase in RFU,CX3CR1 [3]; [14],45.0% and 38.6% and 38.7%
same,RFU,CX3CR1 [3]; [14],15.0 RFU and 13.0 RFU and 12.3 RFU
same,% Increase in RFU,CX3CR1 [3]; [15],52.1% and 45.7% and 41.1%
same,RFU,CX3CR1 [3]; [15],15.5 RFU and 14.4 RFU and 13.5 RFU
same,% Increase in RFU,CX3CR1 [3]; [16],48.9% and 53.1% and 47.0%
same,RFU,CX3CR1 [3]; [16],15.6 RFU and 17.9 RFU and 14.4 RFU
same,% Increase in RFU,CX3CR1 [3]; [17],58.1% and 54.8% and 53.3%
same,RFU,CX3CR1 [3]; [17],18.4 RFU and 18.6 RFU and 18.2 RFU
same,% Increase in RFU,CX3CR1 [3]; [18],46.4% and 46.2% and 42.0%
same,RFU,CX3CR1 [3]; [18],15.7 RFU and 14.6 RFU and 14.5 RFU
same,% Increase in RFU,CX3CR1 [3]; [19],45.9% and 41.3% and 44.0%
same,RFU,CX3CR1 [3]; [19],13.6 RFU and 14.0 RFU and 14.4 RFU
same,EC50,p-ERK1/2,~0.01 µM
B1,stimulation of calcium flux (agonist activity),CX3CR1 [2],dose-dependent stimulation of calcium flux
same,% Increase in RFU,CX3CR1 [2]; [20],59.0% and 61.1%
same,RFU,CX3CR1 [2]; [20],22.2 RFU and 22.7 RFU
same,% Increase in RFU,CX3CR1 [2]; [21],59.9% and 52.7%
same,RFU,CX3CR1 [2]; [21],21.4 RFU and 20.1 RFU
same,% Increase in RFU,CX3CR1 [2]; [22],42.3% and 35.6%
same,RFU,CX3CR1 [2]; [22],15.5 RFU and 12.4 RFU
same,% Increase in RFU,CX3CR1 [2]; [23],25.3% and 14.3%
same,RFU,CX3CR1 [2]; [23],9.3 RFU and 4.8 RFU
same,% Increase in RFU,CX3CR1 [2]; [24],9.6% and 11.8%
same,RFU,CX3CR1 [2]; [24],3.3 RFU and 4.0 RFU
same,% Increase in RFU,CX3CR1 [2]; [25],12.2% and 11.0%
same,RFU,CX3CR1 [2]; [25],4.4 RFU and 4.1 RFU
same,% Increase in RFU,CX3CR1 [2]; [26],8.3% and 5.1%
same,RFU,CX3CR1 [2]; [26],2.9 RFU and 1.9 RFU
same,% Increase in RFU,CX3CR1 [2]; [27],7.6% and 4.7%
same,RFU,CX3CR1 [2]; [27],2.6 RFU and 1.6 RFU
same,% Increase in RFU,CX3CR1 [3]; [28],45.9% and 37.2% and 45.8%
same,RFU,CX3CR1 [3]; [28],16.0 RFU and 10.9 RFU and 15.8 RFU
